This is an account of results in US7256199B1, “Pyrimidone derivatives” (Mitsubishi Chemical Corporation, priority 1998, dated 2007).

Usually IC50 stands for the midpoint of a concentration-inhibition curve.

The test addresses T1, bovine cerebral TPK1 (Bos taurus, UniProt A0A3Q1MT31).
T1 construct: Against P-GS1 Phosphorylation by Bovine Cerebral TPK1; from tissue; host or cells: bovine cerebrum (brain)
The experiment in a line: Inhibitory activity against P-GS1 phosphorylation by bovine cerebral TPK1. It is filed as biochemical. As to conditions: 41.7 μM [γ-32P] ATP, 25° C., 2 hours, pH 6.5. As for the experimental part: Test Example: Inhibitory Activity of the Medicament of the Present Invention Against P-GS1 Phosphorylation by Bovine Cerebral TPK1
A mixture containing 100 mM MES-sodium hydroxide (pH 6.5), 1 mM magnesium acetate, 0.5 mM EGTA, 5 mM β-mercaptoethanol, 0.02% Tween 20, 10% glycerol, 12 μg/ml P-GS1, 41.7 μM [γ-^32P] ATP (68 kBq/ml), bovine cerebral TPK1 and a compound shown in Table (a final mixture contained 1.7% DMSO deriving from a solution of a test compound prepared in the presence of 10% DMSO) was used as a reaction system. The phosphorylation was started by adding ATP, and the reaction was conducted at 25° C. for 2 hours, and then stopped by adding 21% perchloric acid on ice cooling. The reaction mixture was centrifuged at 12,000 rpm for 5 minutes and adsorbed on P81 paper (Whatmann), and then the paper was washed four times with 75 mM phosphoric acid, three times with water and once with acetone. The paper was dried, and the residual radioactivity was measured using a liquid scintillation counter.

Where a name gives a salt, the structure may show the parent alone.

T1 sequence (A0A3Q1MT31 1-419): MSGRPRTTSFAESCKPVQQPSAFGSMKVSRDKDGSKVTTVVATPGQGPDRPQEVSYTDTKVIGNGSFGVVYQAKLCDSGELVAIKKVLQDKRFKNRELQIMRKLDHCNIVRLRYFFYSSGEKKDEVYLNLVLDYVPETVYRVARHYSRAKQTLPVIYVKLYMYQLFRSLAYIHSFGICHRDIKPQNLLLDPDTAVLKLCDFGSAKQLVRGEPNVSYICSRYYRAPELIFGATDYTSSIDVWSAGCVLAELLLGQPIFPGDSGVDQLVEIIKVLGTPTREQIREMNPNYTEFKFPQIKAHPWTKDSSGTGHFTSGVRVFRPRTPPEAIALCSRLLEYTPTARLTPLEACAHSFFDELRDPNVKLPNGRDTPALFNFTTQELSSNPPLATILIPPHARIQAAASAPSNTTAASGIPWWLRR

On to “2-(bromophenylamino)-6-(4-pyridyl)pyrimidin-4-one [Example 91]”, for which the IC50 was 1600 nM.
In turn, “2-(butoxyphenylamino)-6-(4-pyridyl)pyrimidin-4-one [Example 90]” had an IC50 of 6300 nM.
In turn, “2-(ethylphenylamino)-6-(4-pyridyl)pyrimidin-4-one [Example 89]” had an IC50 of 2300 nM.
`O=c1cc(-c2ccncc2)nc(-c2cccnc2)[nH]1` [Example 1, 2-(3-pyridyl)-6-(4-pyridyl)pyrimidin-4-one] returned an IC50 of 2300 nM.
As to `Cc1nc(-c2ccncc2)cc(=O)[nH]1` [Example 2, 2-methyl-6-(4-pyridyl)pyrimidin-4-one], 3000 nM corresponded to half-maximal inhibition (IC50).
Take `CC(C)c1nc(-c2ccncc2)cc(=O)[nH]1` [Example 5, 2-isopropyl-6-(4-pyridyl)pyrimidin-4-one]: the half-maximal inhibitory concentration (IC50) was 2100 nM.
The figure for `CCCCc1nc(-c2ccncc2)cc(=O)[nH]1` [Example 6, 2-butyl-6-(4-pyridyl)pyrimidin-4-one] is 1300 nM.
`CC(C)Cc1nc(-c2ccncc2)cc(=O)[nH]1` [Example 7, 2-isobutyl-6-(4-pyridyl)pyrimidin-4-one] yielded an IC50 of 2400 nM.
As for `O=c1cc(-c2ccncc2)nc(-c2ccccc2)[nH]1` [Example 12, 2-phenyl-6-(4-pyridyl)pyrimidin-4-one], it took 1800 nM to reach half-maximal inhibition (IC50).
In turn, `Cc1ccccc1-c1nc(-c2ccncc2)cc(=O)[nH]1` [Example 14, 6-(4-pyridyl)-2-(2-tolyl)pyrimidin-4-one] showed an IC50 of 4000 nM.
Regarding `Cc1cccc(-c2nc(-c3ccncc3)cc(=O)[nH]2)c1` [Example 15, 6-(4-pyridyl)-2-(3-tolyl)pyrimidin-4-one], half-maximal inhibition (IC50) was put at 2200 nM.
With `Cc1ccc(-c2nc(-c3ccncc3)cc(=O)[nH]2)cc1` [Example 16, 6-(4-pyridyl)-2-(4-tolyl)pyrimidin-4-one], the IC50 came to 4800 nM.
Molecule `O=c1cc(-c2ccncc2)nc(-c2cccc(Br)c2)[nH]1` [Example 19, 2-(3-bromophenyl)-6-(4-pyridyl)pyrimidin-4-one] displayed an IC50 of 8700 nM.
`N#Cc1cccc(-c2nc(-c3ccncc3)cc(=O)[nH]2)c1` [Example 22, 2-(3-cyanophenyl)-6-(4-pyridyl)pyrimidin-4-one]: the IC50 was 6200 nM.
To `O=c1cc(-c2ccncc2)nc(-c2ccc([N+](=O)[O-])cc2)[nH]1` [Example 24, 2-(4-nitrophenyl)-6-(4-pyridyl)pyrimidin-4-one] belongs 5300 nM.
The molecule `CN(C)Cc1cccc(-c2nc(-c3ccncc3)cc(=O)[nH]2)c1` [Example 27, 2-(3-(dimethylaminomethyl)phenyl)-6-(4-pyridyl)pyrimidin-4-one dihydrochloride] registered an IC50 of 3300 nM.
With `O=c1cc(-c2ccncc2)nc(Cc2ccccc2)[nH]1` [Example 28, 2-benzyl-6-(4-pyridyl)pyrimidin-4-one], the IC50 amounted to 1300 nM.
To `Cc1ccccc1Cc1nc(-c2ccncc2)cc(=O)[nH]1` [Example 29, 2-(2-methylbenzyl)-6-(4-pyridyl)pyrimidin-4-one] belongs 1400 nM.
`Cc1ccc(Cc2nc(-c3ccncc3)cc(=O)[nH]2)cc1` [Example 31, 2-(4-methylbenzyl)-6-(4-pyridyl)pyrimidin-4-one] displayed a 50% inhibitory concentration (IC50) of 2900 nM.
Regarding `O=c1cc(-c2ccncc2)nc(Cc2ccc(Cl)cc2)[nH]1` [Example 33, 2-(4-chlorobenzyl)-6-(4-pyridyl)pyrimidin-4-one], the IC50 is 5500 nM.
On to `O=c1cc(-c2ccncc2)nc(CCc2ccccc2)[nH]1` [Example 35, 2-(2-phenylethyl)-6-(4-pyridyl)pyrimidin-4-one], for which the IC50 was found to be 8900 nM.
`O=c1cc(-c2ccncc2)nc(CCCc2ccccc2)[nH]1` [Example 36, 2-(3-phenylpropyl)-6-(4-pyridyl)pyrimidin-4-one] yielded an IC50 of 500 nM.
For the molecule `O=c1cc(-c2ccncc2)nc(-c2ccccn2)[nH]1` [Example 37, 2-(2-pyridyl)-6-(4-pyridyl)pyrimidin-4-one], 3800 nM corresponded to half-maximal inhibition (IC50).
Consider `O=c1cc(-c2ccncc2)nc(-c2ccncc2)[nH]1` [Example 38, 2,6-di(4-pyridyl)pyrimidin-4-one], for which the IC50 is 1800 nM.
For the molecule `O=c1cc(-c2ccncc2)nc(Cc2cccs2)[nH]1` [Example 42, 6-(4-pyridyl)-2-(2-thienylmethyl)pyrimidin-4-one], the IC50 is 7600 nM.
`Nc1nc(-c2ccncc2)cc(=O)[nH]1` [Example 43, 2-amino-6-(4-pyridyl)pyrimidin-4-one] came in with an IC50 of 5700 nM.
Molecule `CN(C)c1nc(-c2ccncc2)cc(=O)[nH]1` [Example 44, 2-dimethylamino-6-(4-pyridyl)pyrimidin-4-one] returned an IC50 of 3700 nM.
In turn, `O=c1cc(-c2ccncc2)nc(Cc2ccccc2Cl)[nH]1` [Example 68, 2-(2-chlorobenzyl)-6-(4-pyridyl)pyrimidin-4-one] returned an IC50 of 1300 nM.
As to `O=c1cc(-c2ccncc2)nc(N2CCCCC2)[nH]1` [Example 69, 2-(1-piperidino)-6-(4-pyridyl)pyrimidin-4-one], inhibition was half-maximal at 2500 nM (IC50).
As for `CCN(CC)c1nc(-c2ccncc2)cc(=O)[nH]1` [Example 71, 2-(diethylamino)-6-(4-pyridyl)pyrimidin-4-one], the IC50 is 1100 nM.
The figure for `CN(Cc1ccccc1)c1nc(-c2ccncc2)cc(=O)[nH]1` [Example 79, 2-(N-benzyl-N-methylamino)-6-(4-pyridyl)pyrimidin-4-one] is 2800 nM; for `O=c1cc(-c2ccncc2)nc(NCc2ccccc2)[nH]1` [Example 80, 2-benzylamino-6-(4-pyridyl)pyrimidin-4-one] it is 1100 nM; for `O=c1cc(-c2ccncc2)nc(N2CCOCC2)[nH]1` [Example 82, 2-(4-morpholinyl)-6-(4-pyridyl)pyrimidin-4-one] it is 4300 nM.
`O=c1cc(-c2ccncc2)nc(C2CCCCC2)[nH]1` [Example 83, 2-cyclohexyl-6-(4-pyridyl)pyrimidin-4-one] yielded an IC50 of 2800 nM.
For the molecule `CC(C)CN(C)c1nc(-c2ccncc2)cc(=O)[nH]1` [Example 84, 2-(N-isobutyl-N-methylamino)-6-(4-pyridyl)pyrimidin-4-one], the IC50 came to 1100 nM.
Take `CCCN(CCC)c1nc(-c2ccncc2)cc(=O)[nH]1` [Example 85, 2-dipropylamino-6-(4-pyridyl)pyrimidin-4-one]: the midpoint of inhibition, the IC50, lay at 960 nM.
Take `O=c1cc(-c2ccncc2)nc(NCCCO)[nH]1` [Example 86, 2-(3-hydroxypropylamino)-6-(4-pyridyl)pyrimidin-4-one]: the midpoint of inhibition, the IC50, lay at 10000 nM.
`O=c1cc(-c2ccncc2)nc(N2CCCC2)[nH]1` [Example 87, 2-(1-pyrrolidinyl)-6-(4-pyridyl)pyrimidin-4-one] had an IC50 of 2600 nM.
To `O=c1cc(-c2ccncc2)nc(NCC2CCCCC2)[nH]1` [Example 88, 2-cyclohexylmethylamino-6-(4-pyridyl)pyrimidin-4-one] belongs 1400 nM.
The molecule `O=c1cc(-c2ccncc2)nc(Nc2ccccc2)[nH]1` [Example 92, 2-phenylamino-6-(4-pyridyl)pyrimidin-4-one] yielded an IC50 of 1600 nM.
The molecule `COc1cccc(Nc2nc(-c3ccncc3)cc(=O)[nH]2)c1` [Example 93, 2-(3-methoxyphenylamino)-6-(4-pyridyl)pyrimidin-4-one] came in with an IC50 of 1800 nM.
In turn, `O=c1cc(-c2ccncc2)nc(Cc2cccc(-c3ccccc3)c2)[nH]1` [Example 96, 2-(3-phenylbenzyl)-6-(4-pyridyl)pyrimidin-4-one] gave a 50% inhibitory concentration (IC50) of 770 nM.
Take `O=c1cc(-c2ccncc2)nc(-c2ccc(O)cc2)[nH]1` [Example 97, 2-(4-hydroxyphenyl)-6-(4-pyridyl)pyrimidin-4-one]: the half-inhibitory concentration (IC50) is 1700 nM.
